Test results taken from the NIST ThermoML archive (doi:10.1007/s10765-017-2241-7).

Conditions: Liquid, Bellows volumetry

CC1CCCCC1 [methylcyclohexane]
mass density [kg/m3]
Conditions	410 K	450 K	500 K	550 K	600 K
10000 kPa	680.503	645.737	595.224	537.032	–
12000 kPa	–	–	–	–	485.331
20000 kPa	695.044	664.914	623.145	579.029	532.582
30000 kPa	707.272	680.595	643.213	605.816	567.711
40000 kPa	717.821	693.215	659.481	626.206	592.364
50000 kPa	727.698	704.34	672.946	642.447	611.576
60000 kPa	736.124	714.464	684.828	656.179	627.511
70000 kPa	743.853	723.281	695.54	668.08	641.114
80000 kPa	750.846	731.598	704.872	678.738	653.239
90000 kPa	757.777	739.304	713.602	688.637	664.012
100000 kPa	764.111	746.296	721.454	697.29	673.632
120000 kPa	776.018	759.037	735.845	713.086	690.895
140000 kPa	786.383	770.433	748.645	726.911	705.698
160000 kPa	795.899	780.708	759.878	739.33	718.93
180000 kPa	804.482	790.183	770.353	750.159	730.911
200000 kPa	812.647	798.897	779.786	760.464	741.384
